In one series the target is T1, tyrosinase (Mus musculus, UniProt P11344).
T1 construct: the supernatant obtained constitutes the cell lysate used as tyrosinase source in the enzymatic assay; endogenous in cells; host or cells: B16F1 murine melanoma cells, cultured with alpha-MSH; detergent lysate supernatant
T1 sequence (P11344 19-533): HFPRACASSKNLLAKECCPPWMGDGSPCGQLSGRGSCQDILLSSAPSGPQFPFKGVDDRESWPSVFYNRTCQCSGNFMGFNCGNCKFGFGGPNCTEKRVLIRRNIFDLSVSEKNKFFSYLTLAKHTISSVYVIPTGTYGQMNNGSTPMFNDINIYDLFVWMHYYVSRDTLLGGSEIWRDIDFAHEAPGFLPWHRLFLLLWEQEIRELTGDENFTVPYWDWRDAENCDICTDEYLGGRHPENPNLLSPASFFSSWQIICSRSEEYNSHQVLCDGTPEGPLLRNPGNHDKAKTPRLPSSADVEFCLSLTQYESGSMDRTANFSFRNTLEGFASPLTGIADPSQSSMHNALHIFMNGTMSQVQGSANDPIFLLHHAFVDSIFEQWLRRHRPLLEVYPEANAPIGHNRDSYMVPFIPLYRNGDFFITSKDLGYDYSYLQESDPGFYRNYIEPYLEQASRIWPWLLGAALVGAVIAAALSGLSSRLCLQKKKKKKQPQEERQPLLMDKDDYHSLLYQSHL
Nature of the series: Tyrosinase activity inhibition assay (B16F1 cell lysate, L-tyrosine substrate, MBTH, absorbance at 520 nm). Type of series: biochemical. Conditions: lysate of B16F1 cells (murine melanoma line) as tyrosinase source, 37° C., reading at 520 nm after 6 hours. As to the method:
The activity of the inhibitors is measured starting from a lysate of B16F1 cells (murine melanoma line). In the presence of the L-tyrosine substrate, the tyrosinase present in these cells catalyses the hydroxylation of L-tyrosine to give L-DOPA and then the oxidation of the L-DOPA to give dopaquinone. In the presence of MBTH (3-methyl-2-benzothiazolinone hydrazone), the dopaquinone is trapped so as to form a pink complex which absorbs at 520 nm.
The B16F1 cells are cultured in DMEM medium+10% foetal calf serum+10^−9 M α-MSH for 4 days at 37° C. under 7% CO2. They are treated with trypsin, washed with PBS, counted and pelleted. The pellet is taken up at 10^7 cells/ml in lysis buffer (10 mM sodium phosphate, pH 6.8−1% Igepal) and the suspension is treated with ultrasound for 10 seconds. After centrifugation for 30 minutes at 4000 rpm, the supernatant obtained constitutes the cell lysate used as tyrosinase source in the enzymatic assay.
The assays are carried out in duplicate in 384-well plates in a total volume of 50 μl. Each well contains: • 40 μl of solution containing 1.25 mM L-tyrosine, 6.25 μM L-DOPA (cofactor) and 3.75 mM MBTH in buffer B (62.25 mM sodium phosphate, pH 6.8-2.5% dimethylformamide), • 5 μl of inhibitor diluted in DMSO, • 5 μl of cell lysate diluted to ½ in 50 mM Tris HCl buffer, pH 7.5.
The plate is incubated at 37° C. and a spectrophotometric reading is carried out at 520 nm after incubating for 6 hours. In order to avoid any possible absorption of the products, the system employs corrected absorbance (absorbance at time 6 h—absorbance at time zero).
The inhibitors are assayed in terms of dose-response so as to calculate an IC50 (dose which inhibits 50% of the enzymatic activity).
Several internal controls are added to each experiment: • control for 100% activity: the 5 μl of inhibitor are replaced with 5 μl of DMSO, • control for 50% activity: the 5 μl of inhibitor are replaced with 5 μl of phenylthiourea at 300 μM in DMSO, • control for 0% activity: the L-tyrosine substrate is replaced with buffer B.

For orientation: melting point means the temperature, or range, at which the solid turns liquid. The term IC50 denotes the concentration that gives 50% inhibition. A high value points to lower potency.

In the case of `COn1cc[nH]c1=S` [Compound 1, 1-methoxy-1,3-dihydroimidazole-2-thione], the melting point lay within 111 to 111.8 °C.

The molecule `S=c1[nH]ccn1OCc1cccnc1` [Compound 2, 1-(pyridin-3-ylmethoxy)-1,3-dihydroimidazole-2-thione] came in with a melting point of 128 to 129 °C.

In turn, `COn1ccn(C)c1=S` [Compound 3, 1-methoxy-3-methyl-1,3-dihydroimidazole-2-thione] registered a melting point of 56.9 to 57.5 °C. Moreover, at tyrosinase, the midpoint of inhibition, the IC50, lay at 72000 nM.

In turn, `On1c(-c2ccccc2)c[nH]c1=S` [Compound 4, 1-hydroxy-5-phenyl-1,3-dihydroimidazole-2-thione] showed an IC50 at tyrosinase of 890 nM.

As for `On1cc(-c2ccccc2)[nH]c1=S` [Compound 5, 1-hydroxy-4-phenyl-1,3-dihydroimidazole-2-thione], the melting point was 196.3 °C.

For the molecule `COc1ccc(-c2c[nH]c(=S)n2O)cc1` [Compound 6, 1-hydroxy-5-(4-methoxyphenyl)-1,3-dihydroimidazole-2-thione], the melting point stood at 150 °C. In addition, at tyrosinase, the IC50 amounted to 820 nM.

`COc1ccc(-c2cn(O)c(=S)[nH]2)cc1` [Compound 7, 1-hydroxy-4-(4-methoxyphenyl)-1,3-dihydroimidazole-2-thione] displayed a melting point of 160 °C.

On to `On1c(-c2cccs2)c[nH]c1=S` [Compound 8, 1-hydroxy-5-(thiophen-2-yl)-1,3-dihydroimidazole-2-thione], for which the melting point lay in the range of 183.6 to 184.8 °C. Besides, half-maximal inhibition against tyrosinase (IC50) was put at 3700 nM.

The record behind these values is patent US20100010049A1, “Novel Tyrosinase inhibitors and pharmaceutical/cosmetic applications thereof” (GALDERMA RESEARCH & DEVELOPMENT, priority 2006, published 2010).
